Reference: the Deep4Chem optical property database

Test: solvent given as SMILES

Cc1ccc2nc3cc4c(cc3c(-c3ccccc3)c2c1)[Si](C)(C)O[Si]4(C)C
emission maximum (in ClCCl): 504 nm

O=S1(=O)c2ccccc2-c2c1c1ccccc1p2-c1ccccc1 (centres undefined)
emission maximum (in C1CCCCC1): 436 nm | emission maximum (in CC#N): 453 nm | emission maximum (in CCO): 464 nm | emission maximum (in ClCCl): 453 nm

F[B-]1(F)n2cccc2C(c2ccccc2)=C2C=CC(c3cccc(OC4=[N+]5C(=C(c6ccccc6)c6cc(Br)c(Br)n6[B-]5(F)F)C=C4Br)c3)=[N+]21
emission maximum (in ClC(Cl)Cl): 568 nm

Cc1cc2nc3c(=O)[nH]c(=O)n(C)c3nc2cc1C
emission maximum (in CC#N): 437 nm

O=[N+]([O-])c1ccc(NCCN(Cc2c3ccccc3cc3ccccc23)c2ccc([N+](=O)[O-])cc2[N+](=O)[O-])c([N+](=O)[O-])c1
emission maximum (in C1CCCCC1): 419 nm | emission maximum (in C1CCOC1): 416 nm | emission maximum (in CC#N): 389 nm | emission maximum (in CC(C)=O): 388 nm | emission maximum (in CCO): 388 nm | emission maximum (in CN(C)C=O): 409 nm | emission maximum (in CO): 389 nm | emission maximum (in ClC(Cl)Cl): 417 nm

c1ccc2c(c1)CCc1ccccc1N2c1c2ccccc2cc2ccccc12
emission maximum (in Cc1ccccc1): 507 nm

CCCCCCC1(CCCCCC)c2cc(-c3nc(-c4ccc5c(c4)C(CCCCCC)(CCCCCC)c4cc(N6c7ccccc7Sc7ccccc76)ccc4-5)nc(-c4ccc5c(c4)C(CCCCCC)(CCCCCC)c4cc(N6c7ccccc7Sc7ccccc76)ccc4-5)n3)ccc2-c2ccc(N3c4ccccc4Sc4ccccc43)cc21
emission maximum (in C1CCOC1): 626 nm | emission maximum (in CCCCCC): 462 nm | emission maximum (in Cc1ccccc1): 529 nm | emission maximum (in ClCCl): 650 nm

COc1ccc2c3c([nH]c2c1)C(C)=NCC3
emission maximum (in CC#N): 480 nm | emission maximum (in CS(C)=O): 420 nm | emission maximum (in O): 480 nm

CC1=[N+]2C(=C(NCc3ccccc3)c3ccc(C)n3[B-]2(F)F)C=C1c1cc2n(c1)[B-](F)(F)[N+]1=CC=CC1=C2c1c(C)cc(C)cc1C
emission maximum (in C1CCCCC1): 636 nm | emission maximum (in CCOC(C)=O): 700 nm

CCCCCCOc1cc(/C=C/c2cc(OCCCCCC)c(/C=C/c3cc(OCCCCCC)c(C=C4C(=O)c5ccccc5C4=O)cc3OCCCCCC)cc2OCCCCCC)c(OCCCCCC)cc1C=C1C(=O)c2ccccc2C1=O
emission maximum (in ClCCl): 662 nm

c1ccc([B-]23NC(C4CCCCC4)=Nc4cccc([n+]42)N=C(C2CCCCC2)N3)cc1
emission maximum (in ClCCl): 456 nm

CCCCC(CC)Cn1c2cc(C#N)ccc2c2ccc(C#Cc3ccc4ccc5cccc6ccc3c4c56)cc21 (centres undefined)
emission maximum (in ClCCl): 420 nm

Cc1nc2cccc(-c3nc4ccccc4s3)c2c(=O)[nH]1
emission maximum (in CN(C)C=O): 416 nm

CN(C)c1ccc(-c2ncnc3ccccc23)cc1
emission maximum (in C1CCCCC1): 421 nm | emission maximum (in C1CCOC1): 483 nm | emission maximum (in CC#N): 529 nm | emission maximum (in CS(C)=O): 543 nm | emission maximum (in ClCCl): 490 nm

CC1=CC(C)=[N+]2C1=C(c1c3ccccc3c(-c3ccccc3)c3ccccc13)c1c(C)cc(C)n1[B-]2(F)F
emission maximum (in CC#N): 508 nm | emission maximum (in CCCCCC): 514 nm | emission maximum (in CCO): 512 nm | emission maximum (in CN(C)C=O): 515 nm | emission maximum (in Cc1ccccc1): 519 nm | emission maximum (in ClCCl): 515 nm

CCOC(=O)/C=C/c1cc2ccc(O)cc2oc1=O
emission maximum (in CCO): 430 nm

CCCC1(CCC)c2cc(-c3ccc(C(C)(C)C)cc3)ccc2-c2ccc(-c3ccc4c(c3)C(CCC)(CCC)c3cc(-c5ccc(C(C)(C)C)cc5)ccc3-4)cc21
emission maximum (in C1CCCCC1): 395 nm

CCC1(CC)c2cc(N(c3ccccc3)c3ccccc3)ccc2-c2c1c1c(c3c2C(CC)(CC)c2cc(N(c4ccccc4)c4ccccc4)ccc2-3)C(CC)(CC)c2cc(N(c3ccccc3)c3ccccc3)ccc2-1
emission maximum (in C1CCOC1): 390 nm | emission maximum (in CC#N): 404 nm | emission maximum (in CC(C)=O): 395 nm | emission maximum (in CCCCCC): 382 nm | emission maximum (in Cc1ccccc1): 386 nm

N#Cc1c(-n2c3ccccc3c3cc(Br)ccc32)c(C#N)c(-n2c3ccccc3c3cc(Br)ccc32)c(-n2c3ccccc3c3cc(Br)ccc32)c1-n1c2ccccc2c2cc(Br)ccc21
emission maximum (in Cc1ccccc1): 515 nm

CN(C)c1cc(C#N)c(N(C)C)c(C#N)c1
emission maximum (in C1CCCCC1): 495.79 nm | emission maximum (in C1CCOC1): 518.13 nm | emission maximum (in C1COCCO1): 521.65 nm | emission maximum (in CC1COC(=O)O1): 532.48 nm | emission maximum (in CC#N): 529.94 nm | emission maximum (in CC(C)=O): 524.93 nm | emission maximum (in CC(C)OC(C)C): 503.02 nm | emission maximum (in CCC#N): 525.76 nm | emission maximum (in CCC(C)C): 493.58 nm | emission maximum (in CCCCCC): 493.83 nm | emission maximum (in CCCCCCCCO): 523.29 nm | emission maximum (in CCCCCOCCCCC): 505.82 nm | emission maximum (in CCCCOC(C)=O): 516.8 nm | emission maximum (in CCCCOCCCC): 502.26 nm | emission maximum (in CCCOCCC): 507.61 nm | emission maximum (in CCO): 528.26 nm | emission maximum (in CCOC(C)=O): 519.21 nm | emission maximum (in CCOCC): 507.36 nm | emission maximum (in CN(C)C=O): 533.9 nm | emission maximum (in CO): 530.5 nm | emission maximum (in CS(C)=O): 538.21 nm | emission maximum (in Cc1ccccc1): 516.8 nm | emission maximum (in ClCCCl): 523.56 nm | emission maximum (in ClCCl): 522.74 nm | emission maximum (in N#Cc1ccccc1): 529.1 nm | emission maximum (in O): 555.25 nm | emission maximum (in OCC(O)CO): 547.35 nm | emission maximum (in c1ccccc1): 519.48 nm

c1ccc(-c2nc(-c3ccccc3)nc(-c3cc(-n4c5ccccc5c5ncccc54)c(-n4c5ccccc5c5ncccc54)c(-n4c5ccccc5c5ncccc54)c3)n2)cc1
emission maximum (in Cc1ccccc1): 435.76 nm

Nc1cccc2cccc(N)c12
emission maximum (in CC#N): 413 nm | emission maximum (in CO): 427 nm | emission maximum (in CS(C)=O): 411 nm | emission maximum (in Cc1ccccc1): 403 nm

O=C(O)C1=C(C(=O)O)C2=C[C@H]3c4ccccc4[C@]2([Se]1)c1ccccc13
emission maximum (in ClCCl): 507 nm

c1ccc(Cc2c3ccc(=[N+]4CCCCC4)cc-3oc3cc(N4CCCCC4)ccc23)cc1
emission maximum (in ClCCl): 582 nm

CCCCCCc1cc(B(c2c(C)cc(C)cc2C)c2c(C)cc(C)cc2C)c(-c2sc(CCCCCC)cc2P(=O)(c2ccccc2)c2ccccc2)s1
emission maximum (in CO): 605 nm

F[B-]1(F)n2c(-c3ccccc3)cnc2-c2cccc[n+]21
emission maximum (in C1CCCCC1): 486 nm | emission maximum (in C1CCOC1): 509 nm | emission maximum (in C1COCCO1): 509 nm | emission maximum (in CC#N): 514 nm | emission maximum (in CCCCCC): 487 nm | emission maximum (in CO): 503 nm | emission maximum (in ClC(Cl)Cl): 501 nm

F[B-]1(F)n2c(c3c(c2-c2ccccc2)C2C=CC3CC2)C(c2ccccc2)=C2C3=C(C(c4ccccc4)=[N+]21)C1C=CC3CC1 (centres undefined)
emission maximum (in ClCCl): 588 nm

CCOC(=O)c1c(-c2c(Cl)c3ccccc3oc2=O)nn(-c2cccc(C)c2)c1C(=O)OCC
emission maximum (in ClCCl): 410 nm

CCCCn1c(-c2ccc(-c3nnc(-c4ccccc4)o3)cc2)nc(-c2ccccc2)c1-c1ccccc1
emission maximum (in ClCCl): 441 nm

CCCCCCCCCCCCn1cccc1/C=C/c1ccc(/C=C/c2cccn2CCCCCCCCCCCC)cc1
emission maximum (in Cc1ccccc1): 443 nm

COC(=O)/C(C#N)=c1\s/c(=c2/s/c(=C(/C#N)C(=O)OC)c3cc(-c4ccc(OC)cc4)sc23)c2sc(-c3ccc(OC)cc3)cc12
emission maximum (in Cc1ccccc1): 680 nm

CC(C)[Si](C#Cc1c2ccccc2c(C#C[Si](C(C)C)(C(C)C)C(C)C)c2nc3c4ccccc4c(=O)c4ccccc4c3nc12)(C(C)C)C(C)C
emission maximum (in ClCCl): 544 nm

COc1cccc(-c2[nH]c(=O)n3c2-c2ccccc2C3=O)c1O
emission maximum (in CC#N): 478 nm | emission maximum (in CO): 496 nm | emission maximum (in ClCCl): 471 nm

CC(C)(C)c1ccc2c(c1)c1cc(C(C)(C)C)ccc1n2-c1ccc2c(c1)C(=O)c1ccc(-n3c4ccc(C(C)(C)C)cc4c4cc(C(C)(C)C)ccc43)cc1C2=O
emission maximum (in Cc1ccccc1): 602 nm | emission maximum (in c1ccc2c(c1)c1ccccc1n2-c1ccc(-c2ccc(-n3c4ccccc4c4ccccc43)cc2)cc1): 575 nm

c1ccc2cc(-c3c4ccccc4c(-c4ccc(-n5c6ccccc6c6ccccc65)cc4)c4ccccc34)ccc2c1
emission maximum (in ClCCl): 427 nm

c1ccc(C2c3ccccc3-c3cc4c(cc32)-c2ccccc2C4c2ccccc2)cc1 (centres undefined)
emission maximum (in ClCCl): 360 nm
